Data from patent US20180272270A1, “AMINE COMPOUNDS FOR SELECTIVELY REMOVING HYDROGEN SULPHIDE” (BASF SE, priority 2015, published 2018).

Assay: Dynamic viscosity of the amines (Anton Paar Stabinger SVM3000 viscometer)
Type: physicochemical

Dynamic viscosity (20 ° C.) [mPa · s] | Dynamic viscosity (60 ° C.) [mPa · s] | Dynamic viscosity (80 ° C.) [mPa · s] | Dynamic viscosity (40 ° C.) [mPa · s] | Compound
58.4 | 6.9 | 3.6 |  | CC(C)(C)NCCOCCO [TBAEE, 2-(2-tert-butylaminoethoxy)ethanol, reference compound]
5.4 | 1.6 | 1.1 | 2.5 | CN(C)CCOCCNC(C)(C)C [TBAEEDA, 2-(2-tert-butylaminoethoxy)ethyl-N,N-dimethylamine]
